Results from PubChem BioAssay (NCI).
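Tested at 5 concentrations; 48 h exposure; 96-well plates; endpoints linearly interpolated, else capped at highest concentration. The concentration for full growth arrest is given as TGI.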

Assays:
Experiment in all cases: growth of human tumour cells (NCI), 48 h
HCT-15 colon = test system: HCT-15 colon
K-562 leukemia = test system: K-562 leukemia
LXFL 529 NSCLC = test system: LXFL 529 NSCLC
SNB-75 CNS = test system: SNB-75 CNS
MALME-3M melanoma = test system: MALME-3M melanoma
SF-268 CNS = test system: SF-268 CNS
SNB-78 CNS = test system: SNB-78 CNS
RXF 393 renal = test system: RXF 393 renal
KM12 colon = test system: KM12 colon
M14 melanoma = test system: M14 melanoma
HCC-2998 colon = test system: HCC-2998 colon
SK-MEL-5 melanoma = test system: SK-MEL-5 melanoma
COLO 205 colon = test system: COLO 205 colon
IGROV1 ovarian = test system: IGROV1 ovarian
HOP-18 NSCLC = test system: HOP-18 NSCLC
CCRF-CEM leukemia = test system: CCRF-CEM leukemia
XF 498 CNS = test system: XF 498 CNS
DMS 273 small cell lung = test system: DMS 273 small cell lung
ACHN renal = test system: ACHN renal
DLD-1 colon = test system: DLD-1 colon
NCI-H460 lung = test system: NCI-H460 lung
SW-620 colon = test system: SW-620 colon
SK-MEL-2 melanoma = test system: SK-MEL-2 melanoma
HCT-116 colon = test system: HCT-116 colon
EKVX NSCLC = test system: EKVX NSCLC
SF-295 CNS = test system: SF-295 CNS
HT29 colon = test system: HT29 colon
SK-OV-3 ovarian = test system: SK-OV-3 ovarian
NCI-H522 lung = test system: NCI-H522 lung
A549 NSCLC = test system: A549 NSCLC
CAKI-1 renal = test system: CAKI-1 renal
RPMI-8226 leukemia = test system: RPMI-8226 leukemia
U251 CNS = test system: U251 CNS
A498 renal = test system: A498 renal
OVCAR-3 ovarian = test system: OVCAR-3 ovarian
KM20L2 colon = test system: KM20L2 colon
HOP-62 NSCLC = test system: HOP-62 NSCLC
UACC-257 melanoma = test system: UACC-257 melanoma
MOLT-4 leukemia = test system: MOLT-4 leukemia
786-0 renal = test system: 786-0 renal
SN12C renal = test system: SN12C renal
HL-60(TB) leukemia = test system: HL-60(TB) leukemia
HOP-92 NSCLC = test system: HOP-92 NSCLC
UACC-62 melanoma = test system: UACC-62 melanoma
M19-MEL melanoma = test system: M19-MEL melanoma
OVCAR-8 ovarian = test system: OVCAR-8 ovarian
SF-539 CNS = test system: SF-539 CNS
OVCAR-4 ovarian = test system: OVCAR-4 ovarian
TK-10 renal = test system: TK-10 renal
NCI-H226 lung = test system: NCI-H226 lung
NCI-H23 lung = test system: NCI-H23 lung
LOX IMVI melanoma = test system: LOX IMVI melanoma
SNB-19 CNS = test system: SNB-19 CNS
UO-31 renal = test system: UO-31 renal
OVCAR-5 ovarian = test system: OVCAR-5 ovarian
SK-MEL-28 melanoma = test system: SK-MEL-28 melanoma
SR leukemia = test system: SR leukemia

Measured: TGI

Fc1cccc(F)c1C1SCc2nc3ccccc3n21 (stereo not given)
95.3 µM: HOP-92 NSCLC
82.7 µM: HL-60(TB) leukemia
> 100 µM: HCT-15 colon | K-562 leukemia | LXFL 529 NSCLC | SNB-75 CNS | MALME-3M melanoma | SF-268 CNS | SNB-78 CNS | RXF 393 renal | KM12 colon | M14 melanoma | HCC-2998 colon | COLO 205 colon | IGROV1 ovarian | HOP-18 NSCLC | CCRF-CEM leukemia | XF 498 CNS | DMS 273 small cell lung | ACHN renal | DLD-1 colon | NCI-H460 lung | SW-620 colon | SK-MEL-2 melanoma | HCT-116 colon | EKVX NSCLC | SF-295 CNS | HT29 colon | SK-OV-3 ovarian | NCI-H522 lung | A549 NSCLC | CAKI-1 renal | RPMI-8226 leukemia | U251 CNS | A498 renal | OVCAR-3 ovarian | KM20L2 colon | HOP-62 NSCLC | UACC-257 melanoma | MOLT-4 leukemia | 786-0 renal | SN12C renal | UACC-62 melanoma | M19-MEL melanoma | OVCAR-8 ovarian | SF-539 CNS | OVCAR-4 ovarian | TK-10 renal | NCI-H226 lung | NCI-H23 lung | LOX IMVI melanoma | SNB-19 CNS | UO-31 renal | OVCAR-5 ovarian
75.4 µM: SK-MEL-5 melanoma

COC1OC(C)C(OC(=O)C(C)(C)C)C(C)(O)C1O (stereo not given)
> 100 µM: HCT-15 colon | K-562 leukemia | LXFL 529 NSCLC | MALME-3M melanoma | SF-268 CNS | SNB-78 CNS | RXF 393 renal | KM12 colon | M14 melanoma | SK-MEL-28 melanoma | HCC-2998 colon | SK-MEL-5 melanoma | COLO 205 colon | IGROV1 ovarian | HOP-18 NSCLC | CCRF-CEM leukemia | XF 498 CNS | DMS 273 small cell lung | DLD-1 colon | NCI-H460 lung | SW-620 colon | HCT-116 colon | SF-295 CNS | HT29 colon | NCI-H522 lung | A549 NSCLC | CAKI-1 renal | RPMI-8226 leukemia | U251 CNS | A498 renal | OVCAR-3 ovarian | KM20L2 colon | HOP-62 NSCLC | UACC-257 melanoma | MOLT-4 leukemia | 786-0 renal | SN12C renal | HL-60(TB) leukemia | HOP-92 NSCLC | UACC-62 melanoma | M19-MEL melanoma | SR leukemia | OVCAR-8 ovarian | SF-539 CNS | OVCAR-4 ovarian | TK-10 renal | NCI-H23 lung | LOX IMVI melanoma | SNB-19 CNS | OVCAR-5 ovarian
